{
  "source": "patent US8598364B2",
  "about": "“Oligomer-protease inhibitor conjugates” (Nektar Therapeutics, priority 2007, dated 2013)",
  "key": {"HIV-1RF": {"system": "HIV-1RF", "assay": "Anti-HIV-1 efficacy in CEM-SS cells infected with HIV-1RF (MTS staining)", "assay_type": "cell-based", "settings": "for IC50: read-out: In vitro Activity IC50", "description": "(§1) Compounds were tested at a 1.0 μM high-test concentration in DMSO. CEM-SS cells were passaged in T-75 flasks prior to use in the antiviral assay. On the day preceding the assay, the cells were split 1:2 in order to assure they were in exponential growth phase at the time of infection. Total cell and viability quantification was performed using a hemacytometer and trypan blue exclusion. Cell viability was greater than 95% for the cells to be utilized in the assay. The cells were resuspended at 5×10^4 cells/mL in tissue culture medium and added to the drug-containing microtiter plates in a volume of 50 μL.\nThe virus used was the lymphocytropic virus strain HIV-1RF. This virus was obtained from the NIH AIDS research and Reference Reagent Program and was grown in CEM-SS cells for the production of stock virus pools. For each assay, a pre-titered aliquot of virus was removed from the freezer and allowed to thaw slowly to room temperature in a biological safety cabinet. The virus was resuspended and diluted into tissue culture medium such that the amount of virus added to each well in a volume of 50 μL was the amount determined to give approximately 90% cell killing in six days post-infection.\n(§2) Each plate contains cell control wells (cells only), virus control wells (cells plus virus), compound cytotoxicity wells (cells plus compound only), compound colorimetric control wells (compound only), as well as experimental wells (compound plus cells plus virus). Samples were evaluated with triplicate measurements for antiviral efficacy and duplicate measurements for cytotoxicity. Six concentrations at half-log dilutions were used in order to determine the IC50 values and to measure cellular cytotoxicity, if detectable.\n(§3) At assay termination, the assay plates were stained with the soluble tetrazolium-based dye MTS (CellTiter Reagent, Promega) to determine cell viability and quantify compound cytotoxicity. […] At termination of the assay, 20 μL of MTS reagent was added per well. The wells were incubated for four to six hours at 37° C. Adhesive plate sealers were used in place of the lids, the seal plate was inverted several times to mix the soluble formazan product and the plate was read spectrophotometrically at 490/650 nm with a Molecular Devices Vmax plate reader."}, "CEM-SS cells": {"system": "CEM-SS cells", "assay": "in vitro", "description": "as §1, §2, §3"}, "in vitro": {"assay": "in vitro", "settings": "human", "description": "as §1, §2, §3"}, "retroviral protease": {"molecular_target": "T1, retroviral protease (Human immunodeficiency virus type 1 group M subtype B, UniProt P04585)", "T1 construct": "any small molecule that can reduce the activity of a retroviral protease", "assay": "Cell-free assay of protease inhibitor conjugates", "assay_type": "biochemical", "settings": "for IC50-fold change / IC90 fold change: relative to atazanavir"}, "[1]": {"settings": "Table 1, CEM-SS cells, HIV-1RF, 50% inhibition of virus replication, 1.0 μM high-test concentration"}, "[2]": {"settings": "Table 2, atazanavir conjugates, read-out: CEM-SS/HIV-1RF EC50"}, "[3]": {"settings": "Table 4, CEM-SS/HIV-1RF, read-out: EC50"}, "[4]": {"settings": "Human immunodeficiency virus 1, CEM-SS, Table 2, atazanavir conjugates, read-out: CEM-SS/HIV-1RF EC50"}, "[5]": {"settings": "Human immunodeficiency virus 1, Table 4, CEM-SS/HIV-1RF, read-out: EC50"}, "[6]": {"settings": "IC50, Table 3, cell-free assay, atazanavir conjugates"}, "[7]": {"settings": "Table 3, cell-free assay, atazanavir conjugates, read-out: IC50"}, "[8]": {"settings": "Table 3, cell-free assay, atazanavir conjugates, read-out: IC90"}},
  "note": "Read-outs that look alike come from different tables or passages of the source.",
  "data": [
    {"molecule": "15-di-m-PEG-7-NCO-Saquinavir [di-15-m-PEG-7-NCO-Saquinavir]", "values": [
      {"measurement": "IC50", "setting": "HIV-1RF; [1]", "value": 0.56, "unit": "µM"},
      {"measurement": "CC50", "setting": "CEM-SS cells", "value": "> 1", "unit": "µM"}
    ]},
    {"molecule": "15-m-PEG-7-NHCO-Saquinavir", "values": [
      {"measurement": "IC50", "setting": "HIV-1RF; [1]", "value": 0.05, "unit": "µM"},
      {"measurement": "CC50", "setting": "CEM-SS cells", "value": "> 1", "unit": "µM"}
    ]},
    {"molecule": "26-m-PEG-3-O-Saquinavir", "values": [
      {"measurement": "In vitro Activity IC50", "setting": "HIV-1RF; [1]", "value": "no activity"},
      {"measurement": "CC50", "setting": "CEM-SS cells", "value": "> 1", "unit": "µM"}
    ]},
    {"molecule": "26-m-PEG-7-O-Saquinavir", "values": [
      {"measurement": "In vitro Activity IC50", "setting": "HIV-1RF; [1]", "value": "no activity"},
      {"measurement": "CC50", "setting": "CEM-SS cells", "value": "> 1", "unit": "µM"}
    ]},
    {"molecule": "Cc1cn([C@H]2C[C@H](N=[N+]=[N-])[C@@H](CO)O2)c(=O)[nH]c1=O", "note": "[AZT, reference compound]", "values": [
      {"measurement": "EC50", "setting": "HIV-1RF; [2]", "value": 0.001, "unit": "µM"},
      {"measurement": "EC50", "setting": "HIV-1RF; [3]", "value": 0.001, "unit": "µM"},
      {"measurement": "EC50", "setting": "HIV-1RF; Table 5, tipranavir conjugates in cell-based assay, read-out: CEM-SS/HIV-1RF EC50", "value": 0.002, "unit": "µM"},
      {"measurement": "EC50", "setting": "HIV-1RF; Table 7, darunavir conjugates in cell-based assay, read-out: CEM-SS/HIV-1RF EC50", "value": 0.005, "unit": "µM"},
      {"measurement": "CC50", "setting": "CEM-SS cells", "value": "> 1", "unit": "µM"}
    ]},
    {"molecule": "COC(=O)N[C@H](C(=O)N[C@@H](Cc1ccccc1)[C@@H](O)CN(Cc1ccc(-c2ccccn2)cc1)NC(=O)[C@@H](NC(=O)OC)C(C)(C)C)C(C)(C)C", "note": "[Atazanavir, atazanavir, reference compound]", "values": [
      {"measurement": "EC50", "setting": "HIV-1RF; [4]", "value": 0.012, "unit": "µM"},
      {"measurement": "EC50", "setting": "HIV-1RF; [5]", "value": 0.012, "unit": "µM"},
      {"measurement": "CC50", "setting": "in vitro", "value": 54.9, "unit": "µM"},
      {"measurement": "IC90", "setting": "retroviral protease", "value": 0.0318, "unit": "µM"},
      {"measurement": "IC50", "setting": "retroviral protease; [6]", "value": 0.00692, "unit": "µM"},
      {"measurement": "IC50-fold change", "setting": "retroviral protease; Table 3, cell-free assay", "value": 1.0},
      {"measurement": "IC90 fold change", "setting": "retroviral protease; Table 3, cell-free assay", "value": 1.0}
    ]},
    {"molecule": "CC(C)CN(C[C@@H](O)[C@H](Cc1ccccc1)NC(=O)O[C@H]1CO[C@H]2OCC[C@H]21)S(=O)(=O)c1ccc(N)cc1", "note": "[Darunavir, darunavir, reference compound]", "values": [
      {"measurement": "EC50", "setting": "HIV-1RF; Human immunodeficiency virus 1, CEM-SS, read-out: CEM-SS/HIV-1RF EC50", "value": "< 0.0007", "unit": "µM"}
    ]},
    {"molecule": "CC(C)(C)NC(=O)[C@@H]1C[C@@H]2CCCC[C@@H]2CN1C[C@@H](O)[C@H](Cc1ccccc1)NC(=O)[C@H](CC(N)=O)NC(=O)c1ccc2ccccc2n1", "note": "[Saquinavir, saquinavir, reference compound]", "values": [
      {"measurement": "IC50", "setting": "HIV-1RF; Human immunodeficiency virus 1, CEM-SS", "value": 0.002, "unit": "µM"},
      {"measurement": "CC50", "setting": "in vitro", "value": "> 0.1", "unit": "µM"}
    ]},
    {"molecule": "CCC[C@@]1(CCc2ccccc2)CC(O)=C([C@H](CC)c2cccc(NS(=O)(=O)c3ccc(C(F)(F)F)cn3)c2)C(=O)O1", "note": "[Tipranavir, tipranavir, reference compound]", "values": [
      {"measurement": "EC50", "setting": "HIV-1RF; Human immunodeficiency virus 1, CEM-SS, Table 5, tipranavir conjugates in cell-based assay, read-out: CEM-SS/HIV-1RF EC50", "value": 0.12, "unit": "µM"},
      {"measurement": "CC50", "setting": "in vitro", "value": 30.6, "unit": "µM"},
      {"measurement": "IC50", "setting": "retroviral protease; IC50, Table 6, tipranavir conjugates in cell-free assay", "value": 0.0072, "unit": "µM"}
    ]},
    {"molecule": "COCCOCCOCCOC(=O)NC(C(=O)NC(Cc1ccccc1)C(O)CN(Cc1ccc(-c2ccccn2)cc1)NC(=O)C(NC(=O)OCCOCCOCCOC)C(C)(C)C)C(C)(C)C", "note": "(stereo not shown) [di-mPEG-3-Atazanavir, di-mPEG3-Atazanavir]", "values": [
      {"measurement": "EC50", "setting": "HIV-1RF; [4]", "value": 0.038, "unit": "µM"},
      {"measurement": "EC50", "setting": "HIV-1RF; [5]", "value": 0.038, "unit": "µM"},
      {"measurement": "CC50", "setting": "in vitro", "value": 95.7, "unit": "µM"},
      {"measurement": "IC90", "setting": "retroviral protease", "value": 0.0537, "unit": "µM"},
      {"measurement": "IC50", "setting": "retroviral protease; [6]", "value": 0.0127, "unit": "µM"},
      {"measurement": "IC50-fold change", "setting": "retroviral protease; Table 3, cell-free assay", "value": 1.8},
      {"measurement": "IC90 fold change", "setting": "retroviral protease; Table 3, cell-free assay", "value": 1.7}
    ]},
    {"molecule": "COCCOCCOCCOCCOCCOCCOCCOC(=O)NC(C(=O)NC(Cc1ccccc1)C(O)CN(Cc1ccc(-c2ccccn2)cc1)NC(=O)C(NC(=O)OCCOCCOCCOCCOCCOCCOCCOC)C(C)(C)C)C(C)(C)C", "note": "(stereo not shown) [di-mPEG-7-Atazanavir, di-mPEG7-Atazanavir]", "values": [
      {"measurement": "EC50", "setting": "HIV-1RF; [4]", "value": 8.4, "unit": "µM"},
      {"measurement": "EC50", "setting": "HIV-1RF; [5]", "value": 8.4, "unit": "µM"},
      {"measurement": "CC50", "setting": "in vitro", "value": "> 200", "unit": "µM"},
      {"measurement": "CC50", "setting": "CEM-SS cells; human", "value": "> 200", "unit": "µM"},
      {"measurement": "IC90", "setting": "retroviral protease", "value": 0.0399, "unit": "µM"},
      {"measurement": "IC50", "setting": "retroviral protease; [6]", "value": 0.0109, "unit": "µM"},
      {"measurement": "IC50-fold change", "setting": "retroviral protease; Table 3, cell-free assay", "value": 1.6},
      {"measurement": "IC90 fold change", "setting": "retroviral protease; Table 3, cell-free assay", "value": 1.3}
    ]},
    {"molecule": "di-mPEG5-Atazanavir [di-mPEG-5-Atazanavir]", "values": [
      {"measurement": "EC50", "setting": "HIV-1RF; [2]", "value": 1.1, "unit": "µM"},
      {"measurement": "EC50", "setting": "HIV-1RF; [3]", "value": 1.1, "unit": "µM"},
      {"measurement": "CC50", "setting": "CEM-SS cells", "value": "> 200", "unit": "µM"},
      {"measurement": "IC50", "setting": "retroviral protease; [7]", "value": 0.0173, "unit": "µM"},
      {"measurement": "IC90", "setting": "retroviral protease; [8]", "value": 0.0476, "unit": "µM"},
      {"measurement": "IC50-fold change", "setting": "retroviral protease; Table 3, cell-free assay", "value": 2.5},
      {"measurement": "IC90 fold change", "setting": "retroviral protease; Table 3, cell-free assay", "value": 1.5}
    ]},
    {"molecule": "di-mPEG6-Atazanavir [di-mPEG-6-Atazanavir]", "values": [
      {"measurement": "EC50", "setting": "HIV-1RF; [2]", "value": 2.5, "unit": "µM"},
      {"measurement": "EC50", "setting": "HIV-1RF; [3]", "value": 2.5, "unit": "µM"},
      {"measurement": "CC50", "setting": "CEM-SS cells", "value": 159, "unit": "µM"},
      {"measurement": "IC50", "setting": "retroviral protease; [7]", "value": 0.0156, "unit": "µM"},
      {"measurement": "IC90", "setting": "retroviral protease; [8]", "value": 0.0678, "unit": "µM"},
      {"measurement": "IC50-fold change", "setting": "retroviral protease; Table 3, cell-free assay", "value": 2.3},
      {"measurement": "IC90 fold change", "setting": "retroviral protease; Table 3, cell-free assay", "value": 2.1}
    ]}
  ]
}
